Reference: ChEMBL document CHEMBL5329194, “Design, Synthesis, and Evaluation of 18F-Labeling CYP1B1 PET Tracer Based on 2-Phenylquinazolin” (Bioorg Med Chem Lett, 2023)

Assays:
Format in all cases: ADME
Cytochrome P450 1B1 = biological target: T1, Cytochrome P450 1B1 (Homo sapiens, UniProt Q16678); test: Inhibition of CYP1B1 (unknown origin) by EROD assay
T1 sequence (Q16678 whole entry): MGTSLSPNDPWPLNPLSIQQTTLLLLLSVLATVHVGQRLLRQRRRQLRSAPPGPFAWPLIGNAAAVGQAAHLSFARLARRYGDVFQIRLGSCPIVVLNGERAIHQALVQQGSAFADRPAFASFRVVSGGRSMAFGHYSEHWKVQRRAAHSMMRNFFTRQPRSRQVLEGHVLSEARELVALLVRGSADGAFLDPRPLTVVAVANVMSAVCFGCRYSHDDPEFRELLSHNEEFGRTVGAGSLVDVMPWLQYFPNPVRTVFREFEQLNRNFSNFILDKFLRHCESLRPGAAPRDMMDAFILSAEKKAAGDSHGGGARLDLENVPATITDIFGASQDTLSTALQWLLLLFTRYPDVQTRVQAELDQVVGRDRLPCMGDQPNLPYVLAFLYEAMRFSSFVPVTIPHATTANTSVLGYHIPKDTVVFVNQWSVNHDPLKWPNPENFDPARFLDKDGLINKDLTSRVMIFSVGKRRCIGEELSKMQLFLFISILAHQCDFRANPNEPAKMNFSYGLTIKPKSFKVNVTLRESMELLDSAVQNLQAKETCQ

CYP1A2 versus CYP1B1 = test: Selectivity ratio of IC50 for inhibition of CYP1A2 (unknown origin) to IC50 for inhibition of CYP1B1 (unknown origin); conditions: human; read-out: Ratio IC50
CYP1A1 versus CYP1B1 = test: Selectivity ratio of IC50 for inhibition of CYP1A1 (unknown origin) to IC50 for inhibition of CYP1B1 (unknown origin); conditions: human; read-out: Ratio IC50
Cytochrome P450 1A1 = biological target: T2, Cytochrome P450 1A1 (Homo sapiens, UniProt P04798); test: Inhibition of CYP1A1 (unknown origin)
T2 sequence (P04798 whole entry): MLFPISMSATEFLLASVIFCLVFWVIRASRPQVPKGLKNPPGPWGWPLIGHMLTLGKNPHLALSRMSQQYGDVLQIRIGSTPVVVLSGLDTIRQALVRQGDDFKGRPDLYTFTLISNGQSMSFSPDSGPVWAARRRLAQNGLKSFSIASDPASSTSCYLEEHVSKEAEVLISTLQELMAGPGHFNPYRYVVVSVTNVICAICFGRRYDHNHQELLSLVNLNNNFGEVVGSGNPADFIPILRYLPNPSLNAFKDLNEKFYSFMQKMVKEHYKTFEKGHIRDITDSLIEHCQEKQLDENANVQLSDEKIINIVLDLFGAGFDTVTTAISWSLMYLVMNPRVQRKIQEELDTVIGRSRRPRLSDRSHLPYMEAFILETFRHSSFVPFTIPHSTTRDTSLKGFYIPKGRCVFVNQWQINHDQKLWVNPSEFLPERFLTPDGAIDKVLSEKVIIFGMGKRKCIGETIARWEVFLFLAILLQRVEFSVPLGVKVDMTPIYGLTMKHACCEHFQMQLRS

Cytochrome P450 1A2 = biological target: T3, Cytochrome P450 1A2 (Homo sapiens, UniProt P05177); test: Inhibition of CYP1A2 (unknown origin)
T3 sequence (P05177 whole entry): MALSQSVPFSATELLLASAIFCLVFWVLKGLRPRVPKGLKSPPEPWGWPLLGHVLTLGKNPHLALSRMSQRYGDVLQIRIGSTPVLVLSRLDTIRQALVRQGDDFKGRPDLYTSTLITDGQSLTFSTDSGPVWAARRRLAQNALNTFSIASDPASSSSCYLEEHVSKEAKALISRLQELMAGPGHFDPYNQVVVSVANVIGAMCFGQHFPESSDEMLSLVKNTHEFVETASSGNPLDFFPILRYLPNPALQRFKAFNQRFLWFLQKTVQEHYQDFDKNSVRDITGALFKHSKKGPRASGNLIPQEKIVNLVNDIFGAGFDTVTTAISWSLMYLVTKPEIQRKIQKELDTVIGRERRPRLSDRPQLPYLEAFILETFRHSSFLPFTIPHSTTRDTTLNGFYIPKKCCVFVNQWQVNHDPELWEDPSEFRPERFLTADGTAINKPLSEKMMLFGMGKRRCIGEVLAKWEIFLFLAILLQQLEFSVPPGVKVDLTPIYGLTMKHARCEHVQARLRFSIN

IC50 (Cytochrome P450 1B1): 49.4 nM | IC50 (Cytochrome P450 1A1): > 1000 nM | IC50 (Cytochrome P450 1A2): > 1000 nM
SMILES: O=c1[nH]c(-c2ccc(OCCF)cc2)nc2ccccc12
selectivity ratio (CYP1A2 versus CYP1B1): > 20.2 | selectivity ratio (CYP1A1 versus CYP1B1): > 20.2
